{"source": "patent US20260284208A1", "about": "“SYSTEM” (Oxford University Innovation Limited, priority 2023, published 2026)", "tested_on": "library of 8,380 IKZF3 degrons (ZF-eGFP/mCherry reporter) in Jurkat cells", "experiment": "Pooled library screen (FACS, NGS, limma voom LogFC of positive vs negative read counts)", "assay_type": "cell-based, human", "summary_of_the_method": "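Degron enrichment was scored by amplicon NGS of gDNA from GFP-low versus other mCherry+ cells, at >600× coverage across three independent transductions. Sorting followed 18 h exposure at 37 °C to thalidomide analog or DMSO, which set the gate; dead cells were excluded with DAPI. Single-copy integration used MOI <0.3.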"}
{"smiles": "CN1CCN(c2ccc3c(c2)C(=O)N(C2CCC(=O)NC2=O)C3=O)CC1", "note": "(stereo not drawn) [B08, 2-(2,6-dioxopiperidin-3-yl)-5-(4-methylpiperazin-1-yl)isoindoline-1,3-dione]", "values": [{"measurement": "B08_logFC", "setting": "Degron-ID 3435, SEQ ID NO 2286, 46F_47S_49E_50I_52G_53A_54S_55F_67L", "value": 2.841}, {"measurement": "B08_logFC", "setting": "Degron-ID 3476, SEQ ID NO 2339, 46F_47S_49E_50V_52G_53A_54T_55F_67L", "value": 2.705}, {"measurement": "B08_logFC", "setting": "Degron-ID 3600, SEQ ID NO 2322, 46F_47T_49D_50I_52G_53A_54A_55F_67L", "value": 2.751}, {"measurement": "B08_logFC", "setting": "Degron-ID 3732, SEQ ID NO 2280, 46F_47T_49N_50I_52G_53A_54P_55F_67L", "value": 2.855}, {"measurement": "B08_logFC", "setting": "Degron-ID 3820, SEQ ID NO 2304, 46F_47T_49P_50V_52G_53A_54A_55F_67L", "value": 2.797}, {"measurement": "B08_logFC", "setting": "Degron-ID 3832, SEQ ID NO 2318, 46F_47T_49P_50V_52G_53A_54P_55F_67L", "value": 2.762}, {"measurement": "B08_logFC", "setting": "Degron-ID 3892, SEQ ID NO 2316, 46F_47V_49D_50V_52G_53A_54P_55F_67L", "value": 2.764}, {"measurement": "B08_logFC", "setting": "Degron-ID 3900, SEQ ID NO 2351, 46F_47V_49E_50I_52G_53A_54A_55F_67L", "value": 2.675}, {"measurement": "B08_logFC", "setting": "Degron-ID 3905, SEQ ID NO 2298, 46F_47V_49E_50I_52G_53A_54G_55F_67L", "value": 2.805}, {"measurement": "B08_logFC", "setting": "Degron-ID 3955, SEQ ID NO 2295, 46F_47V_49E_50V_52G_53A_54S_55F_67L", "value": 2.815}, {"measurement": "B08_logFC", "setting": "Degron-ID 4129, SEQ ID NO 2331, 46F_47W_49D_50V_52G_53A_54L_55F_67L", "value": 2.733}, {"measurement": "B08_logFC", "setting": "Degron-ID 4132, SEQ ID NO 2320, 46F_47W_49D_50V_52G_53A_54P_55F_67L", "value": 2.758}, {"measurement": "B08_logFC", "setting": "Degron-ID 4158, SEQ ID NO 2311, 46F_47W_49E_50I_52G_53A_54W_55F_67L", "value": 2.771}, {"measurement": "B08_logFC", "setting": "Degron-ID 4168, SEQ ID NO 2309, 46F_47W_49E_50Q_52G_53A_54K_55F_67L", "value": 2.774}, {"measurement": "B08_logFC", "setting": "Degron-ID 4182, SEQ ID NO 2288, 46F_47W_49E_50V_52G_53A_54D_55F_67L", "value": 2.825}, {"measurement": "B08_logFC", "setting": "Degron-ID 4259, SEQ ID NO 2276, 46F_47W_49N_50V_52G_53A_54Y_55F_67L", "value": 2.879}, {"measurement": "B08_logFC", "setting": "Degron-ID 4262, SEQ ID NO 2312, 46F_47W_49P_50I_52G_53A_54D_55F_67L", "value": 2.769}, {"measurement": "B08_logFC", "setting": "Degron-ID 4269, SEQ ID NO 2299, 46F_47W_49P_50I_52G_53A_54L_55F_67L", "value": 2.805}, {"measurement": "B08_logFC", "setting": "Degron-ID 4294, SEQ ID NO 2296, 46F_47W_49P_50Q_52G_53A_54R_55F_67L", "value": 2.812}, {"measurement": "B08_logFC", "setting": "Degron-ID 4325, SEQ ID NO 2330, 46F_47Y_49D_50I_52G_53A_54G_55F_67L", "value": 2.741}, {"measurement": "B08_logFC", "setting": "Degron-ID 4368, SEQ ID NO 2270, 46F_47Y_49D_50V_52G_53A_54K_55F_67L", "value": 2.897}, {"measurement": "B08_logFC", "setting": "Degron-ID 4374, SEQ ID NO 2335, 46F_47Y_49D_50V_52G_53A_54R_55F_67L", "value": 2.715}, {"measurement": "B08_logFC", "setting": "Degron-ID 4377, SEQ ID NO 2302, 46F_47Y_49D_50V_52G_53A_54V_55F_67L", "value": 2.8}, {"measurement": "B08_logFC", "setting": "Degron-ID 4384, SEQ ID NO 2279, 46F_47Y_49E_50I_52G_53A_54F_55F_67L", "value": 2.859}, {"measurement": "B08_logFC", "setting": "Degron-ID 4400, SEQ ID NO 2269, 46F_47Y_49E_50Q_52G_53A_54A_55F_67L", "value": 2.899}, {"measurement": "B08_logFC", "setting": "Degron-ID 4413, SEQ ID NO 2317, 46F_47Y_49E_50Q_52G_53A_54Q_55F_67L", "value": 2.763}, {"measurement": "B08_logFC", "setting": "Degron-ID 4415, SEQ ID NO 2272, 46F_47Y_49E_50Q_52G_53A_54S_55F_67L", "value": 2.888}, {"measurement": "B08_logFC", "setting": "Degron-ID 4445, SEQ ID NO 2347, 46F_47Y_49N_50I_52G_53A_54G_55F_67L", "value": 2.678}, {"measurement": "B08_logFC", "setting": "Degron-ID 4493, SEQ ID NO 2313, 46F_47Y_49N_50V_52G_53A_54Q_55F_67L", "value": 2.769}, {"measurement": "B08_logFC", "setting": "Degron-ID 4495, SEQ ID NO 2266, 46F_47Y_49N_50V_52G_53A_54S_55F_67L", "value": 2.902}, {"measurement": "B08_logFC", "setting": "Degron-ID 4508, SEQ ID NO 2306, 46F_47Y_49P_50I_52G_53A_54K_55F_67L", "value": 2.789}, {"measurement": "B08_logFC", "setting": "Degron-ID 4509, SEQ ID NO 2274, 46F_47Y_49P_50I_52G_53A_54L_55F_67L", "value": 2.886}, {"measurement": "B08_logFC", "setting": "Degron-ID 4536, SEQ ID NO 2353, 46F_47Y_49P_50Q_52G_53A_54T_55F_67L", "value": 2.667}, {"measurement": "B08_logFC", "setting": "Degron-ID 4543, SEQ ID NO 2292, 46F_47Y_49P_50V_52G_53A_54E_55F_67L", "value": 2.819}, {"measurement": "B08_logFC", "setting": "Degron-ID 4550, SEQ ID NO 2352, 46F_47Y_49P_50V_52G_53A_54M_55F_67L", "value": 2.668}, {"measurement": "B08_logFC", "setting": "Degron-ID 6545, SEQ ID NO 2345, 46L_47F_49P_50I_52G_53F_54G_55C_67L", "value": 2.683}, {"measurement": "B08_logFC", "setting": "Degron-ID 6550, SEQ ID NO 2301, 46L_47F_49P_50I_52G_53F_54M_55C_67L", "value": 2.8}, {"measurement": "B08_logFC", "setting": "Degron-ID 6559, SEQ ID NO 2357, 46L_47F_49P_50I_52G_53F_54Y_55C_67L", "value": 2.661}, {"measurement": "B08_logFC", "setting": "Degron-ID 6755, SEQ ID NO 2278, 46L_47S_49P_50I_52G_53F_54S_55C_67L", "value": 2.86}, {"measurement": "B08_logFC", "setting": "Degron-ID 6775, SEQ ID NO 2332, 46L_47T_49P_50I_52G_53F_54S_55C_67L", "value": 2.73}, {"measurement": "B08_logFC", "setting": "Degron-ID 6795, SEQ ID NO 2300, 46L_47V_49P_50I_52G_53F_54S_55C_67L", "value": 2.801}, {"measurement": "B08_logFC", "setting": "Degron-ID 6824, SEQ ID NO 2285, 46L_47Y_49P_50I_52G_53F_54F_55C_67L", "value": 2.841}, {"measurement": "B08_logFC", "setting": "Degron-ID 6834, SEQ ID NO 2344, 46L_47Y_49P_50I_52G_53F_54R_55C_67L", "value": 2.685}, {"measurement": "B08_logFC", "setting": "Degron-ID 7574, SEQ ID NO 2310, 46F_47W_49E_50I_52G_53R_54R_55F_67L", "value": 2.772}, {"measurement": "B08_logFC", "setting": "Degron-ID 7616, SEQ ID NO 2308, 46L_47A_49E_50I_52G_53F_54T_55C_67L", "value": 2.779}, {"measurement": "B08_logFC", "setting": "Degron-ID 7636, SEQ ID NO 2363, 46L_47C_49E_50I_52G_53F_54T_55C_67L", "value": 2.644}, {"measurement": "B08_logFC", "setting": "Degron-ID 7736, SEQ ID NO 2325, 46L_47H_49E_50I_52G_53F_54T_55C_67L", "value": 2.749}, {"measurement": "B08_logFC", "setting": "Degron-ID 7915, SEQ ID NO 2362, 46L_47T_49E_50I_52G_53F_54S_55C_67L", "value": 2.649}, {"measurement": "B08_logFC", "setting": "Degron-ID 7964, SEQ ID NO 2360, 46L_47Y_49E_50I_52G_53F_54F_55C_67L", "value": 2.653}, {"measurement": "B08_logFC", "setting": "Degron-ID 7971, SEQ ID NO 2297, 46L_47Y_49E_50I_52G_53F_54N_55C_67L", "value": 2.807}, {"measurement": "position of the WT sequence in the volcano plot of the library screen", "setting": "WT ZF sequence", "value": "far away from the ‘hits’ region"}]}
